The supplement of paper PMC10307832

Compound: COc1cc2nc(N3CCCN(C)CC3)nc(NC3CCN(Cc4ccccc4)CC3)c2cc1OC + NC(=O)Nc1cc(-c2cccc(F)c2)sc1C(=O)N[C@H]1CCCNC1 [AZD7762] (partner 0.2 µM)
Experiment: relative viability (nuclei count vs DMSO), 5 days (fraction); higher = more cells survive
Method in brief: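 Each reported value is a median over duplicate plates. It expresses relative viability: treated-well nuclei count divided by vehicle-well nuclei count. Lung cancer cell lines in 1536-well plates were dosed by pin tool a day after seeding, alone with one drug or with a fixed anchor-drug dose plus five library-drug doses (not always all listed) in √10 steps, and nuclei were counted after 5 days.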

| Cell Line | relative viability (first compound 0.2 µM) | relative viability (first compound 0.6325 µM) | relative viability (first compound 2 µM) | relative viability (first compound 6.325 µM) |
| --- | --- | --- | --- | --- |
| 201T | 0.657 | 0.619 | 0.492 | 0.602 |
| A-427 | 0.785 | 0.681 | 0.756 | 0.775 |
| ABC-1 | 0.753 | 0.772 | 0.79 | 0.91 |
| BEN | 0.8 | 0.82 | 0.752 | 0.736 |
| CAL-12T | 0.725 | 0.615 | 0.614 | 0.595 |
| ChaGo-K-1 | 0.911 | 0.852 | 0.882 | 0.856 |
| EKVX | 0.795 | 0.713 | 0.815 | 0.657 |
| EMC-BAC-2 | 1.06 | 1.16 | 1.07 | 1.29 |
| EPLC-272H | 0.209 | 0.209 | 0.184 | 0.258 |
| H3255 | 0.911 | 0.86 | 0.972 | 0.795 |
| HARA | 0.306 | 0.337 | 0.453 | 0.266 |
| HCC-15 | 1.28 | 1.2 | 1.15 | 1.34 |
| HCC-44 | 1.04 | 0.995 | 0.994 | 1.01 |
| HCC-78 | 0.588 | 0.675 | 0.67 | 0.717 |
| HCC-366 | 0.232 | 0.203 | 0.272 | 0.258 |
| HCC-827 | 0.199 | 0.213 | 0.15 | 0.238 |
| HOP-62 | 0.485 | 0.425 | 0.726 | 0.521 |
| LC-2-ad | 0.827 | 0.908 | 0.941 | 0.91 |
| LCLC-97TM1 | 0.335 | 0.269 | 0.297 | 0.277 |
| LCLC-103H | 0.814 | 0.719 | 0.903 | 0.832 |
| LK-2 | 0.463 | 0.487 | 0.506 | 0.249 |

| Cell Line | relative viability (first compound 0.2 µM) | relative viability (first compound 0.6325 µM) | relative viability (first compound 2 µM) | relative viability (first compound 6.325 µM) |
| --- | --- | --- | --- | --- |
| LOU-NH91 | 0.727 | 0.85 | 0.759 | 0.793 |
| LU99A | 0.383 | 0.314 | 0.301 | 0.285 |
| LXF-289 | 1.04 | 1.05 | 1.12 | 1.11 |
| NCI-H23 | 0.198 | 0.322 | 0.262 | 0.174 |
| NCI-H322M | 0.48 | 0.665 | 0.444 | 0.549 |
| NCI-H358 | 0.518 | 0.681 | 0.48 | 0.498 |
| NCI-H441 | 1.09 | 1.12 | 0.973 | 1.12 |
| NCI-H460 | 0.746 | 0.604 | 0.562 | 0.636 |
| NCI-H522 | 0.901 | 0.791 | 0.986 | 0.792 |
| NCI-H596 | 1.16 | 1.03 | 1.23 | 1.06 |
| NCI-H647 | 0.479 | 0.602 | 0.512 | 0.419 |
| NCI-H650 | 0.95 | 0.93 | 1.02 | 0.67 |
| NCI-H727 | 0.646 | 0.449 | 0.578 | 0.668 |
| NCI-H838 | 0.974 | 0.908 | 1.01 | 0.892 |
| NCI-H1355 | 0.738 | 0.693 | 0.941 | 0.661 |
| NCI-H1395 | 0.413 | 0.446 | 0.37 | 0.335 |
| NCI-H1437 | 1.15 | 1.17 | 1.17 | 1.17 |
| NCI-H1648 | – | 0.708 | – | 0.68 |
| NCI-H1651 | 0.446 | 0.373 | 0.452 | 0.502 |
| NCI-H1666 | 0.901 | 0.809 | 0.76 | 0.746 |
| NCI-H1703 | 0.118 | – | 0.125 | 0.184 |

| Cell Line | relative viability (first compound 0.2 µM) | relative viability (first compound 0.6325 µM) | relative viability (first compound 2 µM) | relative viability (first compound 6.325 µM) |
| --- | --- | --- | --- | --- |
| NCI-H1734 | 0.551 | 0.505 | 0.502 | 0.724 |
| NCI-H1755 | 0.501 | 0.386 | 0.461 | 0.477 |
| NCI-H1792 | 0.778 | 0.591 | 0.76 | 0.58 |
| NCI-H1793 | 0.43 | 0.617 | 0.357 | 0.432 |
| NCI-H1915 | 0.698 | 0.586 | 0.72 | 0.764 |
| NCI-H1944 | 0.534 | 0.476 | 0.487 | 0.51 |
| NCI-H1975 | 0.78 | 0.813 | 0.805 | 0.775 |
| NCI-H1993 | 0.73 | 0.844 | 0.816 | 0.826 |
| NCI-H2085 | 0.992 | 0.992 | 1.09 | 0.947 |
| NCI-H2087 | 1.48 | 1.18 | 1.46 | 1.22 |
| NCI-H2126 | 1.04 | 1.02 | 1.04 | 0.982 |
| NCI-H2170 | 0.936 | 0.809 | 0.892 | 0.833 |
| NCI-H2342 | 0.472 | 0.748 | 0.652 | 0.497 |
| NCI-H2347 | 0.697 | 0.714 | 0.839 | 0.76 |
| NCI-H2405 | 0.671 | 0.792 | 0.829 | 0.973 |
| NCI-H3122 | 1.1 | 0.918 | 1.02 | 0.983 |
| PC-3 [JPC-3] | 0.692 | 1.06 | 0.874 | 0.685 |
| PC-14 | 0.343 | 0.382 | 0.357 | 0.257 |
| RERF-LC-KJ | 1.03 | 0.932 | 0.999 | 0.888 |
| SW 900 | 0.62 | 0.564 | 0.611 | 0.577 |
